# Experimental data: US8273730B2, “Use of estriol in low doses” (Italfarmaco, SA, priority 2007, dated 2012)
# System: vaginal atrophy in female ovariectomized Wistar Han rats
# Test: Assay I: assessment of the effect on vaginal atrophy (vaginal smears: cornified cells, maturation index, overall trophism)
# Format: in vivo, rat
# Conditions: dose 10 times less than the usual dose; rats of both groups (cream and gel)
# Description: In this study a total of 8 female ovariectomized Wistar Han rats were used, which were randomly distributed into 2 groups with 4 animals each. Group A was treated with Formulation 1 whereas Group B was treated with Formulation 2.
# After 18 days had elapsed from the reception of the ovariectomized animals, several vaginal smears were periodically performed in each rat, until the menopausal condition (particularly vaginal atrophy) was verified in all the rats, determining the maturation index of the vaginal epithelium.
# Once the treatment had started, Formulations 1 (0.005% estriol cream) and 2 (0.005% estriol gel) were administered to experimental Group A and B, respectively, once a day for 5 days. The administration was carried out by vaginal route, in an amount of 5.8 mg of formulation/animal (corresponding to 0.29 μg of estriol/animal), using a positive displacement multipipette equipped with a special tip. […]
# The effect of the treatment with each of the formulations was assessed by means of the appearance of cornified cells, the determination of the maturation index of the vaginal epithelium and the evaluation of the overall trophism.
smiles,measurement,value
C[C@]12CC[C@@H]3c4ccc(O)cc4CC[C@H]3[C@@H]1C[C@@H](O)[C@@H]2O [estriol],Effect on vaginal atrophy condition,reverses the vaginal atrophy condition
